Holding throughout (format): biochemical
For test [1], the target named is human recombinant butyrylcholinesterase (hBuChE) (Homo sapiens, UniProt P06276). Briefly: Inhibition of hBuChE, Ellman method. A general note: DTNB colorimetry detects thiols as they appear.
For test [2], the target named is human recombinant acetylcholinesterase (hAChE) (Homo sapiens, UniProt P22303). Briefly: Inhibition of hAChE, Ellman method.
Test [3] has as its target T1, human recombinant MAO B (Homo sapiens, UniProt P27338).
T1 sequence (P27338 1-520): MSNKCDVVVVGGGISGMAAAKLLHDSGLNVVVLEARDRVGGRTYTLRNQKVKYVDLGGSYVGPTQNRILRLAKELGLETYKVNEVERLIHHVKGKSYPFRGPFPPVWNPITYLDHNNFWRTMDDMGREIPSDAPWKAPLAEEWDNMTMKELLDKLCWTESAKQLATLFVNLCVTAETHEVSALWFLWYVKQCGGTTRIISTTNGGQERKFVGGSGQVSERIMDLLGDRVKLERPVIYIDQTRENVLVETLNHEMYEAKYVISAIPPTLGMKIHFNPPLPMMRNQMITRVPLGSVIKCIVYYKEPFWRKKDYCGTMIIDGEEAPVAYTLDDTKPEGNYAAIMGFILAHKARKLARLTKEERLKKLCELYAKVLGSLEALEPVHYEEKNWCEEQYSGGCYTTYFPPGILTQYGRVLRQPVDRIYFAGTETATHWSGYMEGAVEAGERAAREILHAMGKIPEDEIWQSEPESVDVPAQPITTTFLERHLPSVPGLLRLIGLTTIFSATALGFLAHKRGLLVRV
Briefly: Test of reversibility of inhibition of human recombinant MAO B.

Test [4] concerns the target T1, human recombinant MAO B. Briefly: Time-dependent inhibition of human recombinant MAO B. The note with it: pre-incubation times 15–60 minutes.

SMILES strings stand for the structures.

Chain of human recombinant butyrylcholinesterase (hBuChE) (P06276 29-602): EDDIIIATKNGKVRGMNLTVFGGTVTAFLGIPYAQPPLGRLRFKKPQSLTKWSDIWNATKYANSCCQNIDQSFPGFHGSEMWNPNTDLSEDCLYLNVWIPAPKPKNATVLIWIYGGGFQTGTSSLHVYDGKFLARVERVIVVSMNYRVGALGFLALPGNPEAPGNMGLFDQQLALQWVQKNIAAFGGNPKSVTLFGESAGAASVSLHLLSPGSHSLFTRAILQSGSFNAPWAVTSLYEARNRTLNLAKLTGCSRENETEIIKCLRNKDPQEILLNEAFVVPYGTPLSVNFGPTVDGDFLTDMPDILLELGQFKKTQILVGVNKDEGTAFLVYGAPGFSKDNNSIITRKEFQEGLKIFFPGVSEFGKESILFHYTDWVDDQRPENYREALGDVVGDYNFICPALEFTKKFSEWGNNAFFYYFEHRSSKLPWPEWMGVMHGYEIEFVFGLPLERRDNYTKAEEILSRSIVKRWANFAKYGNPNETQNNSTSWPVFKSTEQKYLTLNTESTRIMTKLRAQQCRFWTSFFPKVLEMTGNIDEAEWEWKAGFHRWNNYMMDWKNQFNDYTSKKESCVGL
Chain of human recombinant acetylcholinesterase (hAChE) (P22303 32-614): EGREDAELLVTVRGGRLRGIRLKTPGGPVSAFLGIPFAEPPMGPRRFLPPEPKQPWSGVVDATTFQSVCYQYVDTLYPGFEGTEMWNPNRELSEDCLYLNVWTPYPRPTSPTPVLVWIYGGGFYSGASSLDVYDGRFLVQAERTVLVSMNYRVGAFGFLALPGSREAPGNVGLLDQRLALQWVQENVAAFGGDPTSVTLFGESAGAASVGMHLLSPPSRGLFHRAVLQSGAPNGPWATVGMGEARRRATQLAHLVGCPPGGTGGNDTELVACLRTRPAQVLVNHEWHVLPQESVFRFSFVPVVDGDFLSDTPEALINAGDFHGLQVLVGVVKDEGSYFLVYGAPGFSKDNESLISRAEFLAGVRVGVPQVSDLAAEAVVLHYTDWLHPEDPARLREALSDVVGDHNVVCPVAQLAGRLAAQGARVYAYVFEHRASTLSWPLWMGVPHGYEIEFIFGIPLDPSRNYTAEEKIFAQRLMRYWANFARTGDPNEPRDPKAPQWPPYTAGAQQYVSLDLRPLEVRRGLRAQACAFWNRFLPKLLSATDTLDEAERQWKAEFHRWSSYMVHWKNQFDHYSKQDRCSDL

As usually defined, the IC50 is the point on the concentration scale where inhibition reaches its midpoint. For `C#CCN(C)c1nc(NCCCCC2CCN(Cc3ccccc3)CC2)c(C#N)c(-c2ccccc2)c1C#N` [DPH9], the half-inhibitory concentration (IC50) in test [1] worked out at 1.19 µM.
Still for that read-out and setting: the same measure for `C#CCNc1nc(NCCCCC2CCN(Cc3ccccc3)CC2)c(C#N)c(-c2ccccc2)c1C#N` [DPH12]: 0.77 ± 0.14 µM.
For orientation: inhibition means the percentage by which the read-out fell short of the control. Turning to `C#CCN(C)c1nc(NCCCCC2CCN(Cc3ccccc3)CC2)c(C#N)cc1C#N` [DPH14], the half-inhibitory concentration (IC50) in test [2] is 0.0131 ± 0.0021 µM; in test [1] it was 0.835 ± 0.139 µM. Besides, the “reversibility of hMAO B inhibition” value in test [3] (50 μM, after 100-fold dilution with 1 mM tyramine) is “irreversible”. Also, the inhibition at 50 µM in test [3] (read-out: initial MAO B inhibition) stood at 55%. In addition, the “time dependence of hMAO B inhibition” value in test [4] is reported as “time-dependent inhibition”.
As for `C#CCNc1nc(NCCCCC2CCN(Cc3ccccc3)CC2)c(C#N)cc1C#N` [DPH16], in test [2] (vs donepezil), the “fold more active than donepezil for the inhibition of hAChE” value is 3.1 fold. For the same molecule, the IC50 in test [1] is 0.79 ± 0.11 µM. Also, the “fold more potent than donepezil for hBuChE” value in test [1] (vs donepezil) is reported as 9.2 fold.

The values are drawn from publication PMC4207550 (Drug Design, Development and Therapy, 2014).
